Measurements taken from ChEMBL document CHEMBL5260838 (J Med Chem, 2019).
In brackets after ≈: the same amount, converted by molar mass.

Experiments:
[1] = biological target: T1, Sodium channel protein type 9 subunit alpha (Homo sapiens, UniProt Q15858); test: Displacement of [3H]GX-545 from human Nav1.7 alpha subunit expressed in HEK293 cells co-expressing beta1 subunit by liquid scintillation counting analysis; assay type: cell-based
[2] = biological target: T1, Sodium channel protein type 9 subunit alpha; test: Inhibition of human Nav1.7 alpha subunit expressed in HEK293 cells co-expressing beta1 subunit at -60 mV holding potential by whole-cell patch voltage clamp electrophysiology recording; assay type: cell-based
[3] = Volume of distribution at steady state in mouse at 1 mg/kg, iv; assay type: ADME, organism-based; conditions: in vivo, read-out: Vdss
[4] = Cmax in mouse at 30 mg/kg, po; assay type: ADME, organism-based; set-up: dose 30 mg/kg, route po; conditions: in vivo
[5] = Oral bioavailability in mouse at 30 mg/kg; assay type: ADME, organism-based; conditions: in vivo
[6] = Lipophilicity, logD of the compound at pH 7.4; assay type: physicochemical; conditions: buffer
[7] = Apparent permeability from apical to basolateral side in MDCK1 cells; assay type: ADME, cell-based, Canis lupus familiaris; conditions: dog, MDCK
[8] = AUC in mouse at 30 mg/kg, po; assay type: ADME, organism-based; set-up: dose 30 mg/kg, route po; conditions: in vivo
[9] = Solubility of compound; assay type: physicochemical
[10] = Kinetic solubility of compound; assay type: physicochemical; conditions: read-out: Kinetic_solubility
[11] = AUC in FVB mouse at 30 mg/kg, po; assay type: ADME, organism-based; set-up: dose 30 mg/kg, route po; conditions: in vivo
[12] = biological target: Sodium channel protein type 5 subunit alpha (Homo sapiens, UniProt Q14524); test: Inhibition of human Nav1.5 alpha subunit expressed in HEK293 cells co-expressing beta1 subunit at -60 mV holding potential by PatchXpress automated voltage clamp electrophysiology technique; assay type: cell-based
[13] = Half-life in FVB mouse at 30 mg/kg, po; assay type: ADME, organism-based; conditions: in vivo
[14] = Protein binding in human plasma; assay type: ADME, cell-free; conditions: read-out: PPB (converted)
[15] = Half-life in Sprague-Dawley rat at 1 mg/kg, iv; assay type: ADME, organism-based; conditions: in vivo
[16] = Volume of distribution at steady state in FVB mouse at 1 mg/kg, iv; assay type: ADME, organism-based; conditions: FVB, in vivo, read-out: Vdss
[17] = Protein binding in mouse plasma; assay type: ADME, cell-free; conditions: read-out: PPB (converted)
[18] = biological target: Sodium channel protein type 8 subunit alpha (Homo sapiens, UniProt Q9UQD0); test: Inhibition of human Nav1.6 alpha subunit expressed in HEK293 cells co-expressing beta1 subunit at -35 mV holding potential by PatchXpress automated voltage clamp electrophysiology technique; assay type: cell-based
[19] = Clearance in FVB mouse at 1 mg/kg, iv; assay type: ADME, organism-based; conditions: in vivo
[20] = Half-life in Sprague-Dawley rat at 5 mg/kg, po; assay type: ADME, organism-based; conditions: in vivo
[21] = Half-life in FVB mouse at 1 mg/kg, iv; assay type: ADME, organism-based; conditions: FVB, in vivo
[22] = biological target: Sodium channel protein type 9 subunit alpha (Mus musculus, UniProt Q62205); test: Inhibition of mouse Nav1.7 at -60 mV holding potential by PatchXpress automated voltage clamp electrophysiology technique
[23] = Volume of distribution at steady state in Sprague-Dawley rat at 1 mg/kg, iv; assay type: ADME, organism-based; conditions: in vivo, read-out: Vdss
[24] = system: mouse breast cancer resistant protein (Bcrp); test: Apparent permeability from apical to basolateral side in MDCK-II cells expressing mouse breast cancer resistant protein; assay type: ADME, cell-based, Canis lupus familiaris; conditions: dog
MDR1 = test: Apparent permeability from apical to basolateral side in MDCK1 cells expressing MDR1; assay type: ADME, cell-based, Canis lupus familiaris; conditions: dog, MDCK-MDR1
[25] = biological target: Sodium channel protein type 10 subunit alpha (Mus musculus) (UniProt Q6QIY3); test: Inhibition of TTX-resistant Nav1.8 in mouse dorsal root ganglion neuron at 10 uM by voltage clamp recording relative to control; assay type: tissue-based; conditions: DRG neuron
Mus musculus [26] = test: Antinociceptive activity against aconitine-induced pain in FVB mouse model expressing human Nav 1.7 I848T mutant assessed as reduction in nociceptive behavior at 10 mg/kg administered 120 mins prior to aconitine administration and measured after 70 mins relative to control; assay type: functional; set-up: scale not given: the % may be the effect or the level left; conditions: time 190 min, 3.167 h
[27] = Oral bioavailability in FVB mouse at 30 mg/kg; assay type: ADME, organism-based; conditions: in vivo
[28] = Oral bioavailability in Sprague-Dawley rat at 5 mg/kg; assay type: ADME, organism-based; conditions: in vivo
[29] = biological target: Sodium channel protein type 9 subunit alpha (Rattus norvegicus, UniProt O08562); test: Inhibition of rat Nav1.7 at -60 mV holding potential by PatchXpress automated voltage clamp electrophysiology technique
[30] = Cmax in FVB mouse at 30 mg/kg, po; assay type: ADME, organism-based; set-up: dose 30 mg/kg, route po; conditions: in vivo
[31] = biological target: Sodium channel protein type 1 subunit alpha (Homo sapiens, UniProt P35498); test: Inhibition of human Nav1.1 alpha subunit expressed in HEK293 cells co-expressing beta1 subunit at -40 mV holding potential by PatchXpress automated voltage clamp electrophysiology technique; assay type: cell-based
[32] = Cmax in Sprague-Dawley rat at 5 mg/kg, po; assay type: ADME, organism-based; set-up: dose 5 mg/kg, route po; conditions: in vivo
[33] = Protein binding in rat plasma; assay type: ADME, cell-free; conditions: read-out: PPB (converted)
Mus musculus [34] = test: Antinociceptive activity against aconitine-induced pain in FVB mouse model expressing human Nav 1.7 I848T mutant assessed as reduction in nociceptive behavior at 6 mg/kg administered 120 mins prior to aconitine administration and measured after 70 mins relative to control; assay type: functional; set-up: scale not given: the % may be the effect or the level left; conditions: time 190 min, 3.167 h
Mus musculus [35] = test: Antinociceptive activity against aconitine-induced pain in FVB mouse model expressing human Nav 1.7 I848T mutant assessed as reduction in nociceptive behavior at 3 mg/kg administered 120 mins prior to aconitine administration and measured after 70 mins relative to control; assay type: functional; set-up: scale not given: the % may be the effect or the level left; conditions: time 190 min, 3.167 h
[36] = AUC in Sprague-Dawley rat at 5 mg/kg, po; assay type: ADME, organism-based; set-up: dose 5 mg/kg, route po; conditions: in vivo
[37] = Clearance in Sprague-Dawley rat at 1 mg/kg, iv; assay type: ADME, organism-based; conditions: in vivo
[38] = biological target: Sodium channel protein type 2 subunit alpha (Homo sapiens, UniProt Q99250); test: Inhibition of human Nav1.2 alpha subunit expressed in HEK293 cells co-expressing beta1 subunit at -35 mV holding potential by PatchXpress automated voltage clamp electrophysiology technique; assay type: cell-based
Sodium channel protein type 2 subunit alpha, sequence (Q99250 whole entry): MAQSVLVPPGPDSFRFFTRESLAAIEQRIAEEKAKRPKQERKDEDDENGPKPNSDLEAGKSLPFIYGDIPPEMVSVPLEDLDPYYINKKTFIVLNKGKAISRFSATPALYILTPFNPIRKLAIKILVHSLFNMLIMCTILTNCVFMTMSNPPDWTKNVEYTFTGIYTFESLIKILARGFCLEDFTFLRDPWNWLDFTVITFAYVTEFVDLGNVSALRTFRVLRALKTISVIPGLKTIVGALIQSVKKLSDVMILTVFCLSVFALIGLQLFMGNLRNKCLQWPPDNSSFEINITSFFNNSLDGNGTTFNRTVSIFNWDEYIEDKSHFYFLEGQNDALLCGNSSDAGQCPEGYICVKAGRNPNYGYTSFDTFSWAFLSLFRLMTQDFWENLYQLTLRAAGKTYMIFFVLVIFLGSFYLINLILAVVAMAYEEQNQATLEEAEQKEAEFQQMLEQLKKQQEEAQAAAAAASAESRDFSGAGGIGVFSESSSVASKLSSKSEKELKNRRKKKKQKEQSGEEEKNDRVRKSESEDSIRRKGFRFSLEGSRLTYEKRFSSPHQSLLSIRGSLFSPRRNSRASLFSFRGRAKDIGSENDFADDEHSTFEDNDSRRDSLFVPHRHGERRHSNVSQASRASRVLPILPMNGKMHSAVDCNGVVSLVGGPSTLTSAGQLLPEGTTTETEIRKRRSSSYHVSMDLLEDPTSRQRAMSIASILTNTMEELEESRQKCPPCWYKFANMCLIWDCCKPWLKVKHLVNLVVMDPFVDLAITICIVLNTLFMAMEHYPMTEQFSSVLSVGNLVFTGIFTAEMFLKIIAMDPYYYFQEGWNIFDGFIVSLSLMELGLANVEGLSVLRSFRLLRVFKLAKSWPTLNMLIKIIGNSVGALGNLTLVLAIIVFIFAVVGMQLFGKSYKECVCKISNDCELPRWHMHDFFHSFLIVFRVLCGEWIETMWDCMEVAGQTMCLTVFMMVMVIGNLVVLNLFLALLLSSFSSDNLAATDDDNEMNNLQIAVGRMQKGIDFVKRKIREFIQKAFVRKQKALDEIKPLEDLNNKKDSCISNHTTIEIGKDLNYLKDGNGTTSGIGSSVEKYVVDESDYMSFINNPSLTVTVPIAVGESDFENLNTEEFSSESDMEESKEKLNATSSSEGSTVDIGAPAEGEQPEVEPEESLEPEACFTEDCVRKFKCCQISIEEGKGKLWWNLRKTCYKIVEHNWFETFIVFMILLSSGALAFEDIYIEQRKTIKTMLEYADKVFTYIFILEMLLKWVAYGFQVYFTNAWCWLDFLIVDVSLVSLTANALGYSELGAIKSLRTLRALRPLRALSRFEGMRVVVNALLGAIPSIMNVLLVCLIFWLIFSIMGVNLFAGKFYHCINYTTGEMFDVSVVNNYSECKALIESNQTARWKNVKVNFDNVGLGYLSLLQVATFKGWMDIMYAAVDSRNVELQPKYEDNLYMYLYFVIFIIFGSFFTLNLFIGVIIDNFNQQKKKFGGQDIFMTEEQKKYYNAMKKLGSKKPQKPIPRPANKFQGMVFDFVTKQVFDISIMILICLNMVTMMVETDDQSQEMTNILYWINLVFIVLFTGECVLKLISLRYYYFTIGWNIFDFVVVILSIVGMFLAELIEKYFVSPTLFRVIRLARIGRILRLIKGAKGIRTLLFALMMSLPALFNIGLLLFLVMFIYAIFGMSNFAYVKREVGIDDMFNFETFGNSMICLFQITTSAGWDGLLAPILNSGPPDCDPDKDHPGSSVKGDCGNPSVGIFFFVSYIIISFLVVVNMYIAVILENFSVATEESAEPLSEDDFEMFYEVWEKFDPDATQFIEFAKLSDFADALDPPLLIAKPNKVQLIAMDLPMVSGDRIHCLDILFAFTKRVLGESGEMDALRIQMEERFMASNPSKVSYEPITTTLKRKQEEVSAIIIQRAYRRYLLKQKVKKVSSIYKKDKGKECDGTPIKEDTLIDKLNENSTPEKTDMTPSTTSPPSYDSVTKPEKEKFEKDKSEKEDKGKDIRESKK

T1 sequence (Q15858 whole entry): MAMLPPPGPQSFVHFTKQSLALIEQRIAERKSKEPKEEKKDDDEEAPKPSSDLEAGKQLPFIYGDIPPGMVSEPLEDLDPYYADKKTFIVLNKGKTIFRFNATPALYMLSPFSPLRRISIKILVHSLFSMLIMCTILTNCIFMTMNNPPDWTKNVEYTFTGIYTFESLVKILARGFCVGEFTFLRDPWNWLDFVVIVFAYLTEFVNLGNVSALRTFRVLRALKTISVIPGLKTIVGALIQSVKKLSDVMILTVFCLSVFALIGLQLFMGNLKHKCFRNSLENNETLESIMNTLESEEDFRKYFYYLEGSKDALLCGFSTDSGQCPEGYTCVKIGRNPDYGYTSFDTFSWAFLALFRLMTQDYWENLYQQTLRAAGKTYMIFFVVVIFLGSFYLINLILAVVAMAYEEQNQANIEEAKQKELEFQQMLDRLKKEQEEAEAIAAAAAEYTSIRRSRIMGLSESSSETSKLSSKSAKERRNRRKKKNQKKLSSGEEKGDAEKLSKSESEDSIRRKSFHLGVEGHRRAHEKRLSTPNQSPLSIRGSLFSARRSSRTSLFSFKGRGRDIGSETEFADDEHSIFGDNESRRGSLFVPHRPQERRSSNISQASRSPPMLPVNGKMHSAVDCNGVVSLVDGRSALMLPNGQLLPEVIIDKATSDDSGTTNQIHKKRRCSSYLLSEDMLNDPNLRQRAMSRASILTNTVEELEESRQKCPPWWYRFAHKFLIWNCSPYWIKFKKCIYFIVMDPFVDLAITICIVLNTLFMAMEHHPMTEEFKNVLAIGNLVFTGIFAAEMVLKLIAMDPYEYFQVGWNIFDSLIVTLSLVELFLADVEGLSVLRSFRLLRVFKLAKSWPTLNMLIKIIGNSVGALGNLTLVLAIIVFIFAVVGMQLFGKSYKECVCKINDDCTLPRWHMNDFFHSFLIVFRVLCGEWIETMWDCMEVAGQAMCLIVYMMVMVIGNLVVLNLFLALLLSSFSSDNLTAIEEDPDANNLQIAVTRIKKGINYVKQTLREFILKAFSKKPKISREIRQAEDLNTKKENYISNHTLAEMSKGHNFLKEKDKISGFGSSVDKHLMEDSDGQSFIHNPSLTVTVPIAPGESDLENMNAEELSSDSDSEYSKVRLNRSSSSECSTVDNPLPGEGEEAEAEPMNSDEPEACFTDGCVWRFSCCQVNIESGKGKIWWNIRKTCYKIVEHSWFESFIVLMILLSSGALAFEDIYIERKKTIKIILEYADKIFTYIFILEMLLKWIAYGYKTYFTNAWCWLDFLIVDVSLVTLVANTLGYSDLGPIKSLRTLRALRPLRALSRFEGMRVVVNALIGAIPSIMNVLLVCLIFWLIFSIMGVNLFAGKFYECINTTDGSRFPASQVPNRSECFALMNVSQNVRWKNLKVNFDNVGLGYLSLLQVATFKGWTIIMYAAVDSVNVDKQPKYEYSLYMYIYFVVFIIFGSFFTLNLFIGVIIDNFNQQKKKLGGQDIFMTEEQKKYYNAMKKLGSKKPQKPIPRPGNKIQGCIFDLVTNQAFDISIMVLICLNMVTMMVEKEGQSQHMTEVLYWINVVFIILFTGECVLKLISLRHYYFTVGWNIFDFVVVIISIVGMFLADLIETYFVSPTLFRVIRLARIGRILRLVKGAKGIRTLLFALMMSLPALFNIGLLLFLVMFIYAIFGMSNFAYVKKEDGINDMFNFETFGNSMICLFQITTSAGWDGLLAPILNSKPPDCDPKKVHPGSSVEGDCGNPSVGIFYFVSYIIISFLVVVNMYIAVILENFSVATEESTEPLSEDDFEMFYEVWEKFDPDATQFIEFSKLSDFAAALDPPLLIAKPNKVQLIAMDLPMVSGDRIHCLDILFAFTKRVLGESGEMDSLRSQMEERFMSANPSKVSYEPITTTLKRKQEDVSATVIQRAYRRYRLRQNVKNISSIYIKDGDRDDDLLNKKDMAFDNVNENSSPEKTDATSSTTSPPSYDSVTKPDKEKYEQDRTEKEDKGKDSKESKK

SMILES: CS(=O)(=O)NC(=O)c1ccc(OCC23CC4CC(CC(C4)C2)C3)c(Cl)c1
- IC50 [1]: 330 nM
- IC50 [2]: 59 nM

SMILES: CS(=O)(=O)NC(=O)c1cc(Cl)c(OCC23CC4(F)CC(F)(CC(F)(C4)C2)C3)cc1F
- IC50 [1]: 2400 nM
- IC50 [2]: 752 nM

SMILES: CC1(COc2cc(F)c(C(=O)NS(=O)(=O)C3CC3)cc2C2CC2)CCC(C(F)(F)F)CC1 (configuration not stated)
- IC50 [1]: 10 nM
- IC50 [2]: 6 nM

SMILES: CS(=O)(=O)NC(=O)c1cc(Cl)c(OCC23CC4CC(CC(C4)C2)C3)cc1F
- Vd [3]: 1.2 L/kg
- Cmax [4]: 45 µM
- bioavailability [5]: 100%
- logD [6]: 3.5
- Papp A→B [7]: 13 ×10⁻⁶ cm/s
- AUC [8]: 240 µM·h
- solubility [9]: 31 µM (≈ 12.9 µg/mL)

SMILES: CCC1(COc2cc(F)c(C(=O)NS(=O)(=O)C3CC3)cc2C2CC2)CCC(F)(F)CC1
- IC50 [1]: 17 nM
- IC50 [2]: 5 nM

SMILES: O=C(NS(=O)(=O)C1CC1)c1cc(C2CC2)c(OCC2CCC(F)(F)CC2)cc1F
- IC50 [1]: 33 nM

SMILES: CS(=O)(=O)NC(=O)c1cc(F)c(OCC23CC4CC(CC(C4)C2)C3)cc1F
- IC50 [1]: 640 nM
- IC50 [2]: 41 nM

SMILES: CS(=O)(=O)NC(=O)c1cc(Cl)c(OCC2CCOCC2)cc1F
- IC50 [1]: > 10000 nM
- IC50 [2]: 7400 nM
- logD ([6]; read-out: logD): 0.21

SMILES: CS(=O)(=O)NC(=O)c1cc(Cl)c(OCC23CC4CC(C2)C(F)(F)C(C4)C3)cc1F
- IC50 [1]: 290 nM

SMILES: COCCS(=O)(=O)NC(=O)c1cc(C2CC2)c(OCC2CCC(F)(F)CC2)cc1F
- IC50 [1]: 304 nM
- IC50 [2]: 75 nM

SMILES: CS(=O)(=O)NC(=O)c1cc(Cl)c(OCCC2CCCCC2)cc1F
- IC50 [1]: 500 nM
- IC50 [2]: 17 nM
- logD ([6]; read-out: logD): 1.5

SMILES: CS(=O)(=O)NC(=O)c1cc(Cl)c(OCC23CC4CC(CC(C4)C2)C3)cc1Cl
- IC50 [1]: 2300 nM
- IC50 [2]: 570 nM

SMILES: CC(C)c1cc(C(=O)NS(C)(=O)=O)c(F)cc1OCC12CC3CC(CC(C3)C1)C2
- IC50 [1]: 28 nM
- IC50 [2]: 10 nM

SMILES: CS(=O)(=O)NC(=O)c1cc(Cl)c(OCC23CC4CC(CC(O)(C4)C2)C3)cc1F
- IC50 [1]: > 10000 nM
- IC50 [2]: 2200 nM

SMILES: CC1(COc2cc(F)c(C(=O)NS(=O)(=O)C3CC3)cc2C2CC2)CCC(F)(F)CC1
- solubility kinetic [10]: 32 µM (≈ 14.3 µg/mL)
- AUC [11]: 350 µM·h
- IC50 [12]: 260 nM
- half-life [13]: 15.6 h
- fraction unbound [14]: 0.004
- half-life [15]: 9 h
- Vd [16]: 0.28 L/kg
- fraction unbound [17]: 0.002
- IC50 [18]: 49 nM
- clearance [19]: 1.6 mL/min/kg
- half-life [20]: 16.9 h
- half-life [21]: 2.1 h
- IC50 [22]: 2.5 nM
- Vd [23]: 0.29 L/kg
- Papp A→B [24]: 0.4 ×10⁻⁶ cm/s
- logD ([6]; read-out: logD): 1.4
- Papp A→B (MDR1): 11 ×10⁻⁶ cm/s
- inhibition [25]: 26%
- Activity (Mus musculus [26]): 84%
- bioavailability [27]: 49%
- bioavailability [28]: 66%
- IC50 [29]: 9 nM
- Cmax [30]: 69 µM
- Papp A→B [7]: 22 ×10⁻⁶ cm/s
- IC50 [31]: 48 nM
- Cmax [32]: 25 µM
- fraction unbound [33]: 0.002
- Activity (Mus musculus [34]): 72%
- Activity (Mus musculus [35]): 56%
- AUC [36]: 160 µM·h
- clearance [37]: 0.4 mL/min/kg
- IC50 [38]: 6 nM

SMILES: Cc1cc(C(=O)NS(C)(=O)=O)c(F)cc1OCC12CC3CC(CC(C3)C1)C2
- IC50 [1]: 37 nM
- IC50 [2]: 6 nM

SMILES: CS(=O)(=O)NC(=O)c1cc(Cl)c(OC2CCCCC2)cc1F
- IC50 [1]: 1200 nM
- IC50 [2]: 260 nM
- logD ([6]; read-out: logD): 1.3

SMILES: CS(=O)(=O)NC(=O)c1cc(Cl)c(OCCC2CC2)cc1F
- IC50 [1]: 2700 nM
- IC50 [2]: 440 nM
- logD ([6]; read-out: logD): 0.4

SMILES: CS(=O)(=O)NC(=O)c1cc(C2CC2)c(OCC23CC4CC(C2)C(F)(F)C(C4)C3)cc1F
- IC50 [1]: 8 nM
- IC50 [2]: 3.1 nM

SMILES: CS(=O)(=O)NC(=O)c1cc(C2CC2)c(OCC2CCCCC2)cc1F
- IC50 [1]: 22 nM
- IC50 [2]: 0.7 nM

SMILES: CCc1cc(C(=O)NS(C)(=O)=O)c(F)cc1OCC12CC3CC(CC(C3)C1)C2
- IC50 [1]: 15 nM
- IC50 [2]: 6 nM

SMILES: CS(=O)(=O)NC(=O)c1cc(Cl)c(OCC2CCCC2)cc1F
- IC50 [1]: 520 nM
- IC50 [2]: 68 nM
- logD ([6]; read-out: logD): 1.1

SMILES: CS(=O)(=O)NC(=O)c1cc(Cl)c(OCC23CC4CC(CC(F)(C4)C2)C3)cc1F
- IC50 [1]: 357 nM

SMILES: CS(=O)(=O)NC(=O)c1cc(C2CC2)c(OCC23CC4CC(CC(C4)C2)C3)cc1F
- IC50 [1]: 6 nM

SMILES: CS(=O)(=O)NC(=O)c1cc(Cl)c(OCC2CCCCC2)cc1F
- IC50 [1]: 180 nM
- IC50 [2]: 43 nM
- logD ([6]; read-out: logD): 1.4
